In PubChem BioAssay AID1996:
Converted amounts (≈) assume the structure as drawn.

Conditions: buffer; pH 7.4; 200.0 µM

SMILES | solubility kinetic [µg/mL]
Cc1nc(Nc2ccc3c(c2)OCCO3)c2c(C)c(C)sc2n1 | 3.6 (≈ 11 µM)
Cc1cccc2nc(-c3ccco3)oc(=O)c12 | 21.6 (≈ 95.1 µM)
O=C(NCCCNC(=O)c1ccccc1Cl)c1cnccn1 | 43.5 (≈ 136 µM)
C=CCn1ccc(O)c(Cc2ccc(Cl)cc2)c1=O | 38.6 (≈ 140 µM)
NC(=O)c1ccc(NC(=O)Cc2cccs2)cc1 | 32.9 (≈ 126 µM)
O=C(CN1CCOCC1)Nc1ccc([N+](=O)[O-])cc1 | 39.3 (≈ 148 µM)
CC(NC(=O)Cc1ccsc1)c1ccc(Cl)cc1Cl (configuration not stated) | 3.8 (≈ 12.1 µM)
CCOc1ccc(NC(=O)C2C(c3ccccc3)C2(Cl)Cl)cc1 (configuration not stated) | < 0.8
CCc1ccc(C2NC(=O)c3ccccc3O2)cc1 (configuration not stated) | 2.8 (≈ 11.1 µM)
CCN(CC)C(=O)n1c(Cc2ccccc2)nc2ccccc21 | > 46.1
O=C1c2cccnc2C(=O)N1c1cccc([N+](=O)[O-])c1 | > 40.4
O=C(CN1C(=O)S/C(=C/c2ccncc2)C1=O)Nc1ccccc1 | 5.5 (≈ 16.2 µM)
O=C(CN1CCN(c2ccccc2)CC1)Nc1scc2c1c(=O)oc1ccccc12 | < 0.3
CC1CCCN(C(=O)Cc2cccc3ccccc23)C1 (configuration not stated) | 38.3 (≈ 143 µM)
O=C(NC1CCSc2ccccc21)c1ccccc1Cl (configuration not stated) | 9.3 (≈ 30.6 µM)
COc1ccccc1NC(=O)c1ccc2c(c1)C(=O)N(Cc1ccco1)C2=O | < 0.4
CC(=O)Nc1ccc(NC(=O)c2cccc(Oc3ccccc3)c2)cc1 | < 0.4
O=C(OCC(=O)N1CCCC1=O)c1cccc([N+](=O)[O-])c1 | > 43.8
Nc1cc(N)nc(SCc2cccc(F)c2)n1 | 24.9 (≈ 99.5 µM)
CO/N=C(/COc1ccc(F)cc1)c1ccc(OC)cc1 | < 0.6
Nc1nnc(SCc2c(F)cccc2Cl)s1 | > 41.4
COc1nc(N)nc(NC(=O)c2cccs2)c1N=O | 25.2 (≈ 90.2 µM)
CCc1ccc(CN(C)C(C)C(=O)NCc2ccccc2)cc1 (configuration not stated) | 36.5 (≈ 118 µM)
COCC(=O)Nc1ccc(S(=O)(=O)Nc2nccs2)cc1 | 47 (≈ 144 µM)

SMILES | solubility kinetic [µg/mL]
N#Cc1cccnc1N1CCN(C(=O)c2ccco2)CC1 | > 42.3
CC(=O)Nc1cccc2c1Cc1ccccc1-2 | 11.7 (≈ 52.4 µM)
NC(=O)Cn1nc([N+](=O)[O-])nc1Oc1ccccc1F | > 42.2
CN(Cc1ccccc1Cl)C(=O)CNC(=O)C12CC3CC(CC(C3)C1)C2 | > 56.2
Cc1nc2ccccc2n1CC(=O)OCC(=O)N1CCC(C)CC1 | > 49.4
O=C(CN1CCCCCC1)Nc1ccc([N+](=O)[O-])cc1Cl | 1.1 (≈ 3.53 µM)
Cc1noc(C)c1C(=O)Nc1sccc1C(N)=O | 7.7 (≈ 29 µM)
COc1ccc(C(=O)Nc2ccc(C(=O)N3CCCCC3C)cc2)c(OC)c1OC (configuration not stated) | > 61.9
COc1ccc(/C=C/C(=O)NC(=S)NCc2ccccc2)cc1OC | 2.4 (≈ 6.73 µM)
N/C(=N\OC(=O)c1cccs1)c1cccc(Br)c1 | 8.5 (≈ 26.1 µM)
CCN(CC)c1ccc(NC(=O)CCCCC(=O)Nc2ccc(N(CC)CC)cc2)cc1 | 0.4 (≈ 0.912 µM)
O=C(Nc1cc(Cl)ccc1N1CCOCC1)c1ccncc1 | > 47.7
Cc1ccc(C(=O)O)cc1NC(=O)Nc1cccc2ccccc12 | > 48.1
Cc1ccc(C(C)C)c(OCCNC(=O)c2ccccc2O)c1 | < 0.7
Cc1ccc(Cl)cc1N1C(=O)CC(Sc2ncccn2)C1=O (configuration not stated) | > 50.1
COc1ccc(OC)c(NC(=O)CN2c3cccc4cccc(c34)S2(=O)=O)c1 | 2.2 (≈ 5.52 µM)
COc1c(C)cc(C(=O)C2CCCN(C(=O)c3cc4nc(C)cc(C)n4n3)C2)cc1C (configuration not stated) | > 63.1
CC(C)CN(C(=O)CN(C)CC(=O)Nc1ccc(Cl)c(C(F)(F)F)c1)c1c(N)n(CC(C)C)c(=O)[nH]c1=O | 6 (≈ 10.7 µM)
c1ccc(CN2CCN(c3ncccn3)CC2)cc1 | 24.5 (≈ 96.3 µM)
Cc1cccc(C)c1OCC(O)CN1CCc2ccccc2C1.Cl (configuration not stated) | > 52.2
COc1ccccc1/C=C/C(=O)NC1CC2CCC1C2 (configuration not stated) | 2 (≈ 7.37 µM)
O=C(COc1ccccc1[N+](=O)[O-])NC1CC1 | 29.1 (≈ 123 µM)
CCN(Cc1ccccc1)C(=O)c1oc2ccc(C)cc2c1C | 3 (≈ 9.76 µM)
